Common to all, as to assay type: cell-based
In assay [1] the test system is IL-6. Put plainly: IL-6 levels in human IPF-PCLS culture supernatants (MSD multiplex ELISA). The note with it: single treatment, any concentration tested. The protocol:
(§1) PCLS preparation and culture: PCLS were prepared from a single explanted human IPF lung and rested for 48 hrs to allow the post-slicing stress period to elapse before experiments began. PCLS were subsequently incubated with vehicle (0.1% DMSO), tranilast as a 1:1 l-lysine tranilast salt at 2 escalating concentrations (31.25 μM, 125 μM), pirfenidone at 3 escalating concentrations (0.25 mM, 1 mM, 2.5 mM) or nintedanib at 3 escalating concentrations (0.25 μM, 1 μM, 2.5 μM) in the presence or absence of Tranilast at 2 escalating concentrations (31.25 μM, 125 μM) for a further 96 hrs. PCLS culture media and all compounds were refreshed at 24 hrs intervals. All PCLS were harvested at 144 hrs.
(§2) Experimental groups: Twenty-one (21) different groups with n=6 human PCLS (total n=126 per lung) were investigated as shown in Table 4 below. PCLS were prepared from n=1 individual human IPF lungs.
(§3) PCLS Treatments and Media Collections: PCLS were incubated for a 48 hr rest period. […]
(§4) PCLS harvest: Cell culture supernatant (n=6 per group) were collected every 24 hrs and snap frozen for quantification of inflammatory cytokines and soluble ECM proteins. At harvest, PCLS (n=6 per group) and cell culture media (n=6 per group) were snap frozen for quantification of inflammatory cytokines and soluble ECM proteins.
(§5) Soluble outputs analysis: Anti-inflammatory potential was assessed by determining the levels of the inflammation markers MCP-1, IL-6, GMCSF, IL-8, and IL-1β in the tissue culture supernatants experiment (n=213 samples (n=630 samples; n=126 at 48 hrs, 72 hrs, 96 hrs, 120 hrs and 144 hrs) were quantified using a MSD multiplex ELISA (MesoScaleDiscovery). Anti-fibrotic potential was assessed by determining the levels of the fibrosis markers Collagen-1a1, TIMP1, and Fibronectin in the tissue culture supernatants (n=630 samples as above) were quantified using a single-plex ELISA (R&D). Summary data for all inflammatory markers and fibrotic markers in PCLS treated with pirfenidone (FIGS. 1a and 1b) or nintedanib (FIGS. 2a and 2b) in the presence or absence of Tranilast at 144 hrs only. […]

For assay [2], the system named is Collagen-1a1. Briefly: Collagen 1a1 levels in human IPF-PCLS culture supernatants (single-plex ELISA). The note with it: for Collagen 1a1 secretion: single treatment; for Col1A1: after 4-day dosing. As for the experimental part: as §1, §2
(§6) PCLS Treatments and Media Collections: PCLS were incubated for a 48 hr rest period. Post-rest, PCLS were incubated for a further 96 hrs in the presence or absence of inhibitors as outlined above. PCLS culture media, including all compounds, were refreshed and harvested at 24 hrs intervals from 48 hrs. All PCLS were harvested at 144 hrs.
as §4
(§7) Soluble outputs analysis: Anti-inflammatory potential was assessed by determining the levels of the inflammation markers MCP-1, IL-6, GMCSF, IL-8, and IL-1β in the tissue culture supernatants experiment (n=213 samples (n=630 samples; n=126 at 48 hrs, 72 hrs, 96 hrs, 120 hrs and 144 hrs) were quantified using a MSD multiplex ELISA (MesoScaleDiscovery). Anti-fibrotic potential was assessed by determining the levels of the fibrosis markers Collagen-1a1, TIMP1, and Fibronectin in the tissue culture supernatants (n=630 samples as above) were quantified using a single-plex ELISA (R&D). Summary data for all inflammatory markers and fibrotic markers in PCLS treated with pirfenidone (FIGS. 1a and 1b) or nintedanib (FIGS. 2a and 2b) in the presence or absence of Tranilast at 144 hrs only. Graphs are represented by n=6 tissue culture media per condition, per time point. Data is presented as mean±SEM with individual values per tissue culture media.
In general terms: ELISA stands for enzyme-linked immunosorbent assay.

The test system of assay [3] is IL-8. Put plainly: IL-8 levels in human IPF-PCLS culture supernatants (MSD multiplex ELISA). The note with it: single treatment, any concentration tested. The protocol: as §1, §2, §3, §4, §5
The subject of assay [4] is MCP-1. Briefly: MCP-1 levels in human IPF-PCLS culture supernatants (MSD multiplex ELISA). The note with it: for MCP-1: after 4-day dosing; for MCP-1 secretion: any concentration tested, human IPF PCLS supernatant. As for the experimental part:
as §1, §2, §6, §4, §7

Assay [5] deals with Fibronectin. Put plainly: Fibronectin levels in human IPF-PCLS culture supernatants (single-plex ELISA). The note with it: single treatment, high concentration, at 144 hrs. As for the experimental part:
as §1, §2, §3
PCLS harvest: Cell culture supernatant (n=6 per group) were collected every 24 hrs and snap frozen for quantification of inflammatory cytokines and soluble ECM proteins. At harvest, PCLS (n=6 per group) and cell culture media (n=6 per group) were snap frozen for quantification of inflammatory cytokines and soluble ECM proteins. […]

Setting [6] is: alone (suboptimal / ineffective concentration).
Where [7] appears, read: suboptimal concentrations alone.

The values that follow come from patent publication US20250161250A1, “COMPOSITIONS AND METHODS FOR TREATMENT OF IDIOPATHIC PULMONARY FIBROSIS” (NUFORMIX TECHNOLOGIES LIMITED, priority 2022, published 2025).

“Also recorded” adds a separate entry of the source.

With `COC(=O)c1ccc2c(c1)NC(=O)/C2=C(\Nc1ccc(N(C)C(=O)CN2CCN(C)CC2)cc1)c1ccccc1` [nintedanib], the IL-6 secretion entry in assay [1] is listed as “Little to no effect”. Also, the “Collagen 1a1 secretion” value in assay [2] (any concentration tested) was “little to no effect”. The IL-8 secretion result in assay [3] is reported as “little to no effect”. Also, the MCP-1 entry in assay [4] (setting [6]) was “no effect; also recorded: neither nintedanib (Nin) nor tranilast (TL) alone effected”. Besides, in assay [4] (single treatment), the MCP-1 secretion entry is “little to no effect”.
Regarding `Cc1ccc(=O)n(-c2ccccc2)c1` [pirfenidone], the IL-6 secretion entry in assay [1] was “Little to no effect”. Further, the Fibronectin secretion entry in assay [5] was “attenuation”. Also, the Col1A1 entry is listed as “strongly inhibited” in assay [2] (high concentration alone) and “minimal effect” in assay [2] (setting [7]). Further, the “Collagen 1a1 secretion” value in assay [2] (any concentration tested) is “concentration dependently attenuated”. In addition, the IL-8 secretion result in assay [3] was “concentration dependently attenuated”. Also, the values for the MCP-1 entry in assay [4] (setting [6]) and in assay [4] (high concentration alone) were “minimal effect” and “strongly inhibited”, respectively. Besides, the MCP-1 secretion result in assay [4] (single treatment) is reported as “concentration dependently attenuated”.
As for `COc1ccc(/C=C/C(=O)Nc2ccccc2C(=O)O)cc1OC` [tranilast, 2-[[3-(3,4-dimethoxyphenyl)-1-oxo-2-propenyl]amino]benzoic acid], the IL-6 secretion entry in assay [1] was “Little to no effect”. Also, the Col1A1 result in assay [2] (setting [7]) was “minimal effect”. Also, the “Collagen 1a1 secretion” value in assay [2] (high concentration) was “marginally reduced”. Besides, the IL-8 secretion entry in assay [3] was “little to no effect”. For the same compound, the MCP-1 entry in assay [4] (setting [6]) is on record as “minimal effect; also recorded: neither nintedanib (Nin) nor tranilast (TL) alone effected”. For the same compound, the MCP-1 levels entry in assay [4] (single treatment, high concentration) is listed as “marginally reduced”.
